Assays:
[1] = system: LOX-GFP-LM cells; assay: LOX-GFP-LM experimental metastasis model (lung homogenate fluorescence and survival); assay type: in vivo, SCID beige mice; details: for TGI % At day 25 (tumor growth inhibition relative to Vehicle control group) / RFU (mean ± SD) of lung homogenate / ILS % (increased lifetime-span) / 50% survival days / TGI % At day 26 (tumor growth inhibition relative to Vehicle control group): bid
Procedure: Female SCID beige mice were injected iv via the tail vein with 2 million cells in a volume of 200 μl serum free RPMI1640, randomized into groups, and treated as shown in Tables 6 and 7 with a variety of doses and/or dose schedules. […] The remaining mice from each group were monitored for survival benefit until they were moribund.
Two parameters were assessed for quantitative evaluation of anti-metastatic efficacy: 1) Fluorescence intensity of lung homogenates and 2) Survival.
5 mice per treatment group were removed from the study at Day 25 or 26 for evaluation of lung metastatic tumor burden. Mice were euthanized, and lungs were removed, placed in 3 ml saline, and homogenized. 0.2 ml of lung homogenate was transferred to a 96 well plate, and fluorescence was read using Acumen Explorer. […] Fluorescence was reported in relative fluorescence units (RFU). […] Statistical analysis was determined by Student-test or Mann-Whitney U test, and statistic differences between groups were considered to be significant when the probability value (p) was ≦0.05.
Survival represented overall metastatic status either due to lung metastasis or metastasis to other organs. Moribundity due to labored breathing or hind limb paralysis was monitored and recorded as the surrogate endpoint for survival. For survival assessment, results were plotted as the percentage survival against days after tumor implant. The Increased lifetime-span (% ILS) was calculated as: ILS %=100×[(median survival day of treated group−median survival day of control group)/median survival day of control group]. Median survival or (50% survival time) was determined utilizing Kaplan Meier survival analysis. […] Differences in survival were analyzed by the log-rank test. Statistic differences between groups were considered to be significant when the probability value (p) was ≦0.05.

[2] = system: LOX-GFP cells; assay: LOX-GFP peritoneal (ascites) model; assay type: in vivo, Nu/Nu mice
Procedure: Human melanoma LOX-GFP cells, prepared in accordance with the procedure of Example 3, were maintained in RPMI 1640 medium plus 10% FBS, and 1% Geneticin (G418).
Mice were euthanized, and then a small incision was made along the midline of the abdomen through the skin and peritoneum. A glass Pasteur pipet was utilized to aspirate and remove ascites fluid from the peritoneum, and the ascites was transferred to a 15 ml tube. 3 ml saline was used to rinse the peritoneal cavity, and all of the saline was recovered and transferred into the 15 ml tube containing the ascites fluid. The ascites cell suspension was filtered through a 40 μm nylon filter to obtain a single cell suspension and centrifuged at 1500 rpm for 10 min. The supernatant was removed, and the cell pellet was resuspended in 2 ml of fresh saline. 0.1 ml from each sample was transferred into a 96 well plate to evaluate cell number (reported as relative fluorescence units) utilizing an Acumen Explorer.

[3] = 25, 50, 100 mg/kg po bid, 6 doses (Days 4, 5 & 6), ascites harvest Day 7

For Cc1[nH]nc2c1N=C(c1ccccc1Cl)c1cc(N)ccc1N2 [Compound E], the “TGI % At day 25 (tumor growth inhibition relative to Vehicle control group)” value ([1]; 5 mg/kg po, Day 3-23) was 82.3%, the “RFU (mean ± SD) of lung homogenate” value ([1]; 5 mg/kg po, Day 3-23, lungs at day 25) was 8618508 ± 3198528 RFU and the “ILS % (increased lifetime-span)” value ([1]; 5 mg/kg po, Day 3-d23) was 16.7%. For the same molecule, the 50% survival days ([1]; 5 mg/kg po, Day 3-d23, Vehicle 24 days) was 28 days, the “TGI % At day 25 (tumor growth inhibition relative to Vehicle control group)” value ([1]; 5 mg/kg po, Day −1-7) was −5.9% and the “RFU (mean ± SD) of lung homogenate” value ([1]; 5 mg/kg po, Day −1-7, lungs at day 25) was 51670506 ± 29321586 RFU. For the same molecule, the “TGI % At day 25 (tumor growth inhibition relative to Vehicle control group)” value ([1]; 5 mg/kg po, Day −1-23) was 73.9%, the “RFU (mean ± SD) of lung homogenate” value ([1]; 5 mg/kg po, Day −1-23, lungs at day 25) was 12738540 ± 5426672 RFU and the “ILS % (increased lifetime-span)” value ([1]; 5 mg/kg po, Day −1-d7) was 4.2%. The 50% survival days ([1]; 5 mg/kg po, Day −1-d7, Vehicle 24 days) was 25 days, the “ILS % (increased lifetime-span)” value ([1]; 5 mg/kg po, Day −1-d23) was 16.7% and the 50% survival days ([1]; 5 mg/kg po, Day −1-d23, Vehicle 24 days) was 28 days. For the same molecule, the “anti-metastatic activity as assessed by fluorescence intensity of lung homogenates” value ([1]; late intervention (Dosed Day 3 through 23) vs full length intervention (Day −1 through 23)) was “equivalent anti-metastatic activity”.

For COc1ccc(C2=N[C@@H](c3ccc(Cl)cc3)[C@@H](c3ccc(Cl)cc3)N2C(=O)N2CCNC(=O)C2)c(OC(C)C)c1 (stereo in doubt) [Compound D, 4-[(4S,5R)-4,5-Bis-(4-chloro-phenyl)-2-(2-isopropoxy-4-methoxy-phenyl)-4,5-dihydro-imidazole-1-carbonyl]-piperazin-2-one], the LOX-GFP ascites growth [2, 3] was “inhibited LOX-GFP ascites growth at several doses”, the “dose dependence of LOX-GFP ascites growth inhibition” value [2, 3] was “not dose-dependent” and the “TGI % At day 26 (tumor growth inhibition relative to Vehicle control group)” value ([1]; 200 mg/kg po, Day 3-21) was 96.2%. For the same molecule, the “RFU (mean ± SD) of lung homogenate” value ([1]; 200 mg/kg po, Day 3-21, lungs at day 26) was 2359191 ± 526586 RFU, the “ILS % (increased lifetime-span)” value ([1]; 200 mg/kg po, Day 3-d21) was 29% and the 50% survival days ([1]; 200 mg/kg po, Day 3-d21, Vehicle 28 days) was 36 days. For the same molecule, the “TGI % At day 26 (tumor growth inhibition relative to Vehicle control group)” value ([1]; 200 mg/kg po, Day −1-7) was 66.0%, the “RFU (mean ± SD) of lung homogenate” value ([1]; 200 mg/kg po, Day −1-7, lungs at day 26) was 21092887 ± 10460489 RFU and the “TGI % At day 26 (tumor growth inhibition relative to Vehicle control group)” value ([1]; 200 mg/kg po, Day −1-21) was 78.7%. For the same molecule, the “RFU (mean ± SD) of lung homogenate” value ([1]; 200 mg/kg po, Day −1-21, lungs at day 26) was 13230372 ± 11960417 RFU, the “ILS % (increased lifetime-span)” value ([1]; 200 mg/kg po, Day −1-d7) was 0% and the 50% survival days ([1]; 200 mg/kg po, Day −1-d7, Vehicle 28 days) was 28 days. For the same molecule, the “ILS % (increased lifetime-span)” value ([1]; 200 mg/kg po, Day −1-d21) was 10.7%, the 50% survival days ([1]; 200 mg/kg po, Day −1-d21, Vehicle 28 days) was 31 days and the “anti-metastatic activity as assessed by fluorescence intensity of lung homogenates” value ([1]; late intervention (Dosed Day 3 through 23) as compared to Vehicle) was “superior anti-metastatic activity”.

COc1ccc(F)c(F)c1C(=O)c1cnc(NC2CCN(S(C)(=O)=O)CC2)nc1N [Compound A, [4-Amino-2-(1-methanesulfonyl-piperidin-4-ylamino)-pyrimidin-5-yl]-(2,3-difluoro-6-methoxy-phenyl)-methanone] was tested, and the “LOX-GFP ascites cell growth” value ([2]; Compound A 40 mg/kg po, 2 doses (Days 5 & 6), ascites harvest Day 7) was “reduced cell growth”, the “LOX-GFP ascites cell growth” value ([2]; Compound A 40 mg/kg po, 3 doses (Days 4, 5 & 6), ascites harvest Day 7) was “reduced cell growth maximally” and the “LOX-GFP ascites cell growth” value ([2]; Compound A 40 mg/kg po, single dose (Day 6), ascites harvest Day 7) was “did not inhibit cell growth”.

With CC(=O)O[C@H]1C(=O)[C@@]2(C)[C@H]([C@H](OC(=O)c3ccccc3)[C@]3(O)C[C@H](OC(=O)[C@H](O)[C@@H](NC(=O)c4ccccc4)c4ccccc4)C(C)=C1C3(C)C)[C@]1(OC(C)=O)CO[C@@H]1C[C@@H]2O [Taxol, reference compound] the “LOX-GFP ascites cell growth” value ([2]; Taxol 10 mg/kg iv, 2 doses (Days 5 & 6), ascites harvest Day 7) was “reduced cell growth”, the “LOX-GFP ascites cell growth” value ([2]; Taxol 10 mg/kg iv, 3 doses (Days 4, 5 & 6), ascites harvest Day 7) was “reduced cell growth maximally” and the “LOX-GFP ascites cell growth” value ([2]; Taxol 10 mg/kg iv, single dose (Day 6), ascites harvest Day 7) was “did not inhibit cell growth”.

With CCOc1ccnc2ccc(/C=C3\SC(N[C@@H](CO)c4ccccc4)=NC3=O)cc12 [Compound C, 5-(4-Ethoxy-quinolin-6-ylmeth-(Z)-ylidine)-2-(2-hydroxy-1-(R)-phenyl-ethylamino)-thiazol-4-one] the LOX-GFP ascites growth ([2]; 200 mg/kg po bid, 12 doses, ascites harvest Day 8) was “demonstrated inhibitory effects on LOX-GFP ascites growth”.

With COc1ccc(C2=NC(c3ccc(Cl)cc3)C(c3ccc(Cl)cc3)N2C(=O)N2CCNC(=O)C2)c(OC(C)C)c1 (stereo not drawn) [Compound B, 4-[4,5-Bis-(4-chloro-phenyl)-2-(2-isopropoxy-4-methoxy-phenyl)-4,5-dihydro-imidazole-1-carbonyl]-piperazin-2-one] the LOX-GFP ascites growth ([2]; 40 mg/kg sc, 6 doses, ascites harvest Day 8) was “demonstrated inhibitory effects on LOX-GFP ascites growth”.
